Results: US20140303092A1 (CHIMERIX, INC., priority 2011, published 2014)

Key:
[1] = clinical; conditions: human, in vivo
Experimental: The pharmacokinetics of HDP-CDV (oral solution) were investigated in a dose-escalation study in healthy volunteers (Study HDP-CDV-102) in which single doses of up to 2 mg/kg and multiple doses (3 doses, each separated by 6 days) of up to 1 mg/kg were administered.

[2] = Study HDP-CDV-201 post hoc analysis of preemptive therapy with anti-CMV STOC during follow-up; assay type: in vivo, human (HCT recipients)
Experimental: Subjects who developed CMV infection or disease at any time during the up to 11-week treatment period (through approximately 100 days posttransplant) were discontinued from study treatment (i.e., HDP-CDV or placebo) and followed for a period of 4 weeks, while subjects who completed the treatment period were followed for a period of 8 weeks. After study treatment was discontinued, subjects were treated with PrT for CMV infection/disease.
Among the study population (N=230 subjects), subjects who received STOC for PrT, defined as receiving at least one of GCV, vGCV, FOS or IV CDV for the explicit treatment of CMV infection/disease during the follow-up (“FU”) period, were identified. […]
Baseline measures for clinical laboratory values were defined as the last value on or before the last day of study treatment. The maximal decrease in ANC was determined using the minimum value reported after the last day of study treatment. The maximal increase in serum creatinine was determined using the maximum value reported after the last day of study treatment. […]
AEs were counted if the onset day was after the last day of study treatment. […] P-values were determined using Fisher's exact test for binary data and an independent t-test (pooled) for continuous data.

[3] = system: CMV; assay: Study HDP-CDV-350: virologic response of refractory CMV infection in HCT recipients; assay type: in vivo, human (allogeneic HCT recipients); conditions: for Proportion of subjects with ≧1 log10 last on-treatment reduction or last on-treatment reduction to ≦ LLOQ / Proportion of subjects with ≧1 log10 postbaseline reduction in CMV DNAemia or postbaseline reduction to ≦ LLOQ: LLOQ 100 copies/mL
Experimental: The virologic responses of 16 allogeneic HCT recipients enrolled and treated with HDP-CDV due to refractory CMV infection or disease and/or intolerance to available anti-CMV medications were evaluated.
All subjects completed a screening assessment (including obtaining written informed consent and, where applicable, assent) prior to initiating treatment with HDP-CDV.
HDP-CDV was given orally twice weekly (BIW); 100 mg BIW for adults or 2 mg/kg BIW for pediatrics. […] Eligible subjects received either a weight-based or fixed dose of HDP-CDV. Pediatric subjects (≦12 years old) received a 4 mg/kg total weekly dose (not-to-exceed 200 mg), as either 2 mg/kg twice-weekly (BIW) or 4 mg/kg once-weekly (QW). Adults and adolescent (13-17 years old) subjects received a 200 mg (not to exceed 4 mg/kg) total weekly dose, as either 100 mg BIW or 200 mg QW. BIW doses were administered at alternating 3- and 4-day intervals and QW doses on the same day each week.
Subjects were treated for an initial period of up to 3 months until either resolution or stabilization of their clinical disease or for 4 weeks following resolution of viral DNAemia, depending on the disease under treatment, whichever was longer. Treatment is extended for up to an additional 3 months, for a total duration of 6 months treatment, depending on the subject's clinical response.
Subjects underwent extensive safety monitoring, including routine safety laboratory assessments, physical examination, and vital sign measurements at regular intervals. In addition, subjects were monitored for viral DNA burden in plasma (DNAemia) and other affected compartments (e.g., urine, stool, CSF, etc.). Assessments were performed weekly for the first month, every 1 or 2 weeks for the next 2 months, and monthly thereafter for as long as treatment was continued. Subjects were monitored for adverse events (AEs) and for selected concomitant medication throughout the entire study, including the 1 month posttreatment follow-up period.

[4] = system: human liver microsomes and recombinant human CYP enzymes; assay: Study HDP-CDV-NCA-049: in vitro CYP reaction phenotyping, liver microsomes; assay type: in vitro ADME; conditions: liver microsomes from multiple species, previous studies
Excerpt: This study is expected to definitively quantify the major human metabolites arising from specific CYP enzymes and inform the need for a clinical DDI study investigating the effect of inhibition of these CYP enzymes on the PK of HDP-CDV.

[5] = set-up: species or system human; conditions: in vivo
Excerpt: Plasma samples were collected during the study to assess weekly trough concentrations of HDP-CDV and CDV. […] There was no evidence for increasing weekly trough CDV plasma concentrations; therefore, plasma concentrations are not presented in this document.

[6] = mouse, in vivo
[7] = cynomolgus monkey, in vivo

## CCCCCCCCCCCCCCCCOCCCOP(=O)(O)COC(CO)Cn1ccc(N)nc1=O (centres unmarked) [HDP-CDV]
[1]
  Cmax and AUC versus dose: increased approximately in proportion to dose
  accumulation on Day 12: negligible accumulation
  quantifiable in urine: not quantifiable in the urine
[1]; 1 mg/kg
  half-life: 27 h
[1]; po
  time of Cmax after administration: 2 to 3 h
[2]; 100 mg twice-weekly (11/50)
  rate of preemption: 22.0%
[2]; four cohorts ≧100 mg HDP-CDV per week (38 of 146)
  incidence of preemptive therapy with anti-CMV STOC: 26.0%
[3]; 16 HCT recipients, 100 mg BIW adults or 2 mg/kg BIW pediatrics
  Maximal reduction in CMV VL from BL, mean (range): 1.13 (−0.30-2.60) log10
[3]; 16 subjects, qPCR plasma
  Mean last on-treatment change from baseline CMV DNAemia: −0.63 log10 copies/mL
  Mean maximal postbaseline change in CMV DNAemia: −1.13 log10 copies/mL
[3]; +1 Month Posttreatment, N 8
  Change from Baseline CMV DNAemia, Mean: −1.00 log10 copies/mL
[3]; +1 Week Posttreatment, N 9
  Change from Baseline CMV DNAemia, Mean: −0.63 log10 copies/mL
[3]
  Proportion of subjects with ≧1 log10 last on-treatment reduction or last on-treatment reduction to ≦ LLOQ: (62.5%)
  Proportion of subjects with ≧1 log10 postbaseline reduction in CMV DNAemia or postbaseline reduction to ≦ LLOQ: (81.3%)
[3]; Month 3, N 7
  Change from Baseline CMV DNAemia, Mean: +0.16 log10 copies/mL
[3]; Month 4, N 4
  Change from Baseline CMV DNAemia, Mean: −0.89 log10 copies/mL
[3]; Month 5, N 3
  Change from Baseline CMV DNAemia, Mean: −0.84 log10 copies/mL
[3]; Month 6, N 3
  Change from Baseline CMV DNAemia, Mean: −0.80 log10 copies/mL
[3]; Thirteen of 16 subjects
  subjects with >1 log10 reduction or ≦LOQ (2 log10) during tx: 81%
[3]; Week 2, N 16
  Change from Baseline CMV DNAemia, Mean: −0.22 log10 copies/mL
[3]; Week 3, N 15
  Change from Baseline CMV DNAemia, Mean: −0.30 log10 copies/mL
[3]; Week 4, N 15
  Change from Baseline CMV DNAemia, Mean: −0.52 log10 copies/mL
[3]; Week 5, N 14
  Change from Baseline CMV DNAemia, Mean: −0.63 log10 copies/mL
[3]; Week 6, N 6
  Change from Baseline CMV DNAemia, Mean: −0.66 log10 copies/mL
[3]; Week 7, N 10
  Change from Baseline CMV DNAemia, Mean: −0.16 log10 copies/mL
[3]; Week 8, N 3
  Change from Baseline CMV DNAemia, Mean: +0.22 log10 copies/mL
[3]; Week 9, N 8
  Change from Baseline CMV DNAemia, Mean: −0.02 log10 copies/mL
[3]; Week 10, N 2
  Change from Baseline CMV DNAemia, Mean: +0.11 log10 copies/mL
[3]; Week 11, N 9
  Change from Baseline CMV DNAemia, Mean: +0.06 log10 copies/mL
[3]; subjects/N
  Proportion of subjects with ≧1 log10 last on-treatment reduction or last on-treatment reduction to ≦ LLOQ: 10/16
  Proportion of subjects with ≧1 log10 postbaseline reduction in CMV DNAemia or postbaseline reduction to ≦ LLOQ: 13/16
[4]
  in vitro turnover: low in vitro turnover
[5]
  weekly trough HDP-CDV concentrations: near or below the lower limit of quantification
[6]
  ALT increases in individual animals: up to 5 fold
[7]
  ALT change: dose-related increases in ALT which were quickly reversible after cessation of dosing
